Converted amounts (≈) assume the structure as drawn.
What was measured:
[1] = test system: N. gonorrhoeae WHO G; test: Liquid broth MIC in Fastidious broth; assay type: cell-based; conditions: Neisseria gonorrhoeae; N. gonorrhoeae strain WHO G; Fastidious broth; read-out: Minimum Inhibitory Concentration, N. gonorrhoeae WHO G
Outline: (§1)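 Colonies were swabbed from chocolate agar after 24 h growth and standardised by optical density at 600 nm. Compounds were serially diluted twofold in Fastidious broth, and bacteria added to give 5×10^5 CFU/mL. After about 24 h at 36 °C in 5% CO2, the lowest concentration allowing under 10% growth was taken as MIC.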

[2] = test system: N. gonorrhoeae WHO K; test: Liquid broth MIC in Fastidious broth; assay type: cell-based; conditions: Neisseria gonorrhoeae, read-out: Minimum Inhibitory Concentration, N. gonorrhoeae WHO K
Outline: (§2)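 Broth microdilution against gonococcal strains expressing mosaic PBP2, starting inoculum 5×10^5 CFU/mL in Fastidious broth. Incubation runs ~24 h at 36 °C under 5% CO2, with MIC scored visually at <10% of full growth.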

[3] = test system: N. gonorrhoeae WHO Q; test: Liquid broth MIC in Fastidious broth; assay type: cell-based; conditions: Neisseria gonorrhoeae, read-out: Minimum Inhibitory Concentration, N. gonorrhoeae WHO Q
Outline: as §2

[4] = test system: N. gonorrhoeae FA1090; test: Liquid broth MIC in Fastidious broth; assay type: cell-based; conditions: Neisseria gonorrhoeae; N. gonorrhoeae strain FA1090; Fastidious broth; read-out: Minimum Inhibitory Concentration, N. gonorrhoeae FA1090
Outline: as §1

[5] = test system: N. gonorrhoeae ATCC 49226; test: Liquid broth MIC in Fastidious broth; assay type: cell-based; conditions: Neisseria gonorrhoeae, ATCC49226; N. gonorrhoeae strain ATCC 49226; Fastidious broth; read-out: Minimum Inhibitory Concentration, N. gonorrhoeae ATCC 49226
Outline: as §1

[6] = test system: N. gonorrhoeae WHO Z; test: Liquid broth MIC in Fastidious broth; assay type: cell-based; conditions: Neisseria gonorrhoeae, read-out: Minimum Inhibitory Concentration, N. gonorrhoeae WHO Z
Outline: as §2

[7] = test system: N. gonorrhoeae H041; test: Liquid broth MIC in Fastidious broth; assay type: cell-based; conditions: Neisseria gonorrhoeae, H041, read-out: Minimum Inhibitory Concentration, N. gonorrhoeae H041
Outline: as §2

[8] = target: T1, E. coli K12 PBP3 (Escherichia coli, UniProt P0AD68); test: biochemical; assay type: binding
T1 construct: made in house
Outline: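 Fluorescence polarization (ex 490/em 520 nm) competition of inhibitors against Bocillin-FL at 0.1 μM, read up to 60 min. Final PBP levels: E. coli PBP3 1.5 μM; A. baumannii PBP2 2.5 μM, PBP3 0.2 μM in Tris pH 8.0/NaCl/glycerol/Tween 20; N. gonorrhoeae PBP2 […] in Hepes pH 8.0/NaCl/glycerol. EC50 = concentration halving PBP-bound Bocillin-FL.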

[9] = target: T2, P. aeruginosa PBP3 (Pseudomonas aeruginosa, UniProt G3XD46); test: Bocillin-FL fluorescence polarization competition binding assay, P. aeruginosa PBP3; conditions: fluorescence polarization competition binding assay using Bocillin-FL
T2 construct: made in house
Outline: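 Binding of boronic acid inhibitors to purified Pseudomonas aeruginosa (PA01) PBP3 was measured by fluorescence polarization competition with Bocillin-FL, a fluorescent penicillin V. Reactions of 80 μl contained 0.75 μM PBP3 and 0.1 μM Bocillin-FL in 50 mM Hepes (pH 8.0), 300 mM NaCl and 5% (v/v) glycerol, in black 384-well plates. FP (Excitation 490 nm, Emission 520 nm) was read for up to 60 minutes. EC50 is the concentration that halves PBP-bound Bocillin-FL.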

T2 sequence (G3XD46 whole entry): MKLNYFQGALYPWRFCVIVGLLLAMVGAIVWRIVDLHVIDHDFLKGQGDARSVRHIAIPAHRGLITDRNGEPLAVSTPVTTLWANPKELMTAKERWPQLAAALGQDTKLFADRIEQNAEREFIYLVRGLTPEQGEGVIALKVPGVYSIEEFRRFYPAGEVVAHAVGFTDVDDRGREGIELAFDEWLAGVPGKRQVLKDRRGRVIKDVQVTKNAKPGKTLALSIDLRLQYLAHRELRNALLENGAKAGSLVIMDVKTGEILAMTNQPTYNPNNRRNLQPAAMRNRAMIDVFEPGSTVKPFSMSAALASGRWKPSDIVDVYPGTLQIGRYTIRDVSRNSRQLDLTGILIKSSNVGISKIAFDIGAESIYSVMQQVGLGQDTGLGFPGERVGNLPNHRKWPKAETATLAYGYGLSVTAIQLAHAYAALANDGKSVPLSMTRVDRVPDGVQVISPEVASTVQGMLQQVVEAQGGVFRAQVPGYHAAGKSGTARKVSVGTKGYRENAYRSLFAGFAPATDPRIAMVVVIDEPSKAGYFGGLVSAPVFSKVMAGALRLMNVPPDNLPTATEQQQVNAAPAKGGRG
T1 sequence (P0AD68 1-577): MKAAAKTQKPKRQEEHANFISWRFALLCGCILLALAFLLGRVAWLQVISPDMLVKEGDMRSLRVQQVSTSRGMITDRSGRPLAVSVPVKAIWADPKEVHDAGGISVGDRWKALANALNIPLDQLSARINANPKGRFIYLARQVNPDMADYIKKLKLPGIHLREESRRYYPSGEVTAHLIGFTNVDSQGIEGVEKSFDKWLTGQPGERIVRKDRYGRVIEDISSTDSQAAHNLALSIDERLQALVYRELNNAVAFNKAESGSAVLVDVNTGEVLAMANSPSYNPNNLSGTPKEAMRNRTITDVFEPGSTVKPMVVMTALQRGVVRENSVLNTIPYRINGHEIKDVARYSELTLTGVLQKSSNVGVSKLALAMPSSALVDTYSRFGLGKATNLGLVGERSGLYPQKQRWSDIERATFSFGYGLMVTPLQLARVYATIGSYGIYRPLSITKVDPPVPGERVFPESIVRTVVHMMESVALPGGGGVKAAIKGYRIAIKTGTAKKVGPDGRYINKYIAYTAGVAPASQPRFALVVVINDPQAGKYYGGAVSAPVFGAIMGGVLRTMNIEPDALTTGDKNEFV

| Structure (SMILES) | MIC [1] | MIC [2] | MIC [3] | MIC [4] | MIC [5] | MIC [6] | MIC [7] | EC50 [8] | P. aeruginosa PBP3 Potency [9] |
| --- | --- | --- | --- | --- | --- | --- | --- | --- | --- |
| NC1(CN2CCN(C(=O)N[C@@H](C(=O)N[C@H]3Cc4ccc(F)c(C(=O)O)c4OB3O)c3c(F)cc(O)c(O)c3Cl)C(=O)C2=O)CC1 (single isomer, unassigned) [Example 134] | > 64 µg/mL | > 64 µg/mL | > 64 µg/mL | 16 to 32 µg/mL (≈ 24.5 to 49.1 µM) | > 64 µg/mL | > 64 µg/mL | > 64 µg/mL | 30 to 500 µM | D (D represents a potency <10 μM) |
| CS(=O)(=O)N1CCN(C(=O)N[C@@H](C(=O)N[C@H]2Cc3cccc(C(=O)O)c3OB2O)c2c(F)cc(O)cc2F)C1=O (single isomer, unassigned) [Example 135] | 1 to 2 µg/mL (≈ 1.72 to 3.43 µM) | > 64 µg/mL | 16 to 32 µg/mL (≈ 27.5 to 55 µM) | < 0.125 µg/mL | 4 to 8 µg/mL (≈ 6.87 to 13.7 µM) | 16 to 32 µg/mL (≈ 27.5 to 55 µM) | > 64 µg/mL | < 30 µM | D (D represents a potency <10 μM) |
| CS(=O)(=O)N1CCN(C(=O)N[C@H](C(=O)N[C@H]2Cc3cccc(C(=O)O)c3OB2O)c2c(F)cc(O)cc2F)C1=O (single isomer, unassigned) [Example 136] | 16 to 32 µg/mL (≈ 27.5 to 55 µM) | > 64 µg/mL | > 64 µg/mL | 1 to 2 µg/mL (≈ 1.72 to 3.43 µM) | > 64 µg/mL | > 64 µg/mL | > 64 µg/mL | 30 to 500 µM | B (B represents a potency between 30 μM and 500 μM inclusive) |
| CCN1CCN(C(=O)N[C@H](C(=O)N[C@H]2Cc3cccc(C(=O)O)c3OB2O)c2ccc(C(=O)O)cc2O)C(=O)C1=O (single isomer, unassigned) [Example 143] | 4 to 8 µg/mL (≈ 7.04 to 14.1 µM) | > 64 µg/mL | > 64 µg/mL | 1 to 2 µg/mL (≈ 1.76 to 3.52 µM) | 16 to 32 µg/mL (≈ 28.2 to 56.3 µM) | 16 to 32 µg/mL (≈ 28.2 to 56.3 µM) | > 64 µg/mL | < 30 µM | B (B represents a potency between 30 μM and 500 μM inclusive) |
| CCN1CCN(C(=O)N[C@@H](C(=O)N[C@H]2Cc3cccc(C(=O)O)c3OB2O)c2ccc(C(=O)O)cc2O)C(=O)C1=O (single isomer, unassigned) [Example 144] | 0.25 to 0.5 µg/mL (≈ 0.44 to 0.88 µM) | 16 to 32 µg/mL (≈ 28.2 to 56.3 µM) | 4 to 8 µg/mL (≈ 7.04 to 14.1 µM) | < 0.125 µg/mL | 1 to 2 µg/mL (≈ 1.76 to 3.52 µM) | 4 to 8 µg/mL (≈ 7.04 to 14.1 µM) | 16 to 32 µg/mL (≈ 28.2 to 56.3 µM) | < 30 µM | D (D represents a potency <10 μM) |
| NCCN1CCN(C(=O)N[C@H](C(=O)N[C@H]2Cc3cccc(C(=O)O)c3OB2O)c2cc(F)c(O)c(F)c2)C(=O)C1=O (single isomer, unassigned) [Example 158] | 16 to 32 µg/mL (≈ 27.8 to 55.6 µM) | > 64 µg/mL | > 64 µg/mL | 4 to 8 µg/mL (≈ 6.95 to 13.9 µM) | > 64 µg/mL | > 64 µg/mL | > 64 µg/mL | 30 to 500 µM | C (C represents a potency between 10 and 30 μM) |
| NCCN1CCN(C(=O)N[C@H](C(=O)N[C@H]2Cc3cccc(C(=O)O)c3OB2O)c2cc(Cl)c(O)c(Cl)c2)C(=O)C1=O (single isomer, unassigned) [Example 165] | > 64 µg/mL | > 64 µg/mL | > 64 µg/mL | 4 to 8 µg/mL (≈ 6.58 to 13.2 µM) | > 64 µg/mL | > 64 µg/mL | > 64 µg/mL | 30 to 500 µM | D (D represents a potency <10 μM) |
| NCCN1CCN(C(=O)N[C@H](C(=O)N[C@H]2Cc3cccc(C(=O)O)c3OB2O)c2cc(F)c(O)c(F)c2F)C(=O)C1=O (single isomer, unassigned) [Example 167] | 16 to 32 µg/mL (≈ 27 to 53.9 µM) | > 64 µg/mL | > 64 µg/mL | 1 to 2 µg/mL (≈ 1.69 to 3.37 µM) | 16 to 32 µg/mL (≈ 27 to 53.9 µM) | > 64 µg/mL | > 64 µg/mL | 30 to 500 µM | D (D represents a potency <10 μM) |
| NCCN1CCN(C(=O)N[C@H](C(=O)N[C@H]2Cc3cccc(C(=O)O)c3OB2O)c2ccc(O)c(F)c2F)C(=O)C1=O (single isomer, unassigned) [Example 169] | > 64 µg/mL | > 64 µg/mL | > 64 µg/mL | 4 to 8 µg/mL (≈ 6.95 to 13.9 µM) | > 64 µg/mL | > 64 µg/mL | > 64 µg/mL | 30 to 500 µM | C (C represents a potency between 10 and 30 μM) |
| NCCN1CCN(C(=O)N[C@@H](C(=O)N[C@H]2Cc3cccc(C(=O)O)c3OB2O)c2ccc(O)c(F)c2F)C(=O)C1=O (single isomer, unassigned) [Example 170] | 4 to 8 µg/mL (≈ 6.95 to 13.9 µM) | > 64 µg/mL | > 64 µg/mL | 0.25 to 0.5 µg/mL (≈ 0.435 to 0.869 µM) | 4 to 8 µg/mL (≈ 6.95 to 13.9 µM) | > 64 µg/mL | > 64 µg/mL | < 30 µM | D (D represents a potency <10 μM) |
| NS(=O)(=O)c1cccc(C(NC(=O)N2CCN(CCF)C(=O)C2=O)C(=O)N[C@H]2Cc3cccc(C(=O)O)c3OB2O)c1 (stereo partly drawn) [Example 100, (3R)-3-(2-(4-(2-fluoroethyl)-2,3-dioxopiperazine-1-carboxamido)-2-(3-sulfamoylphenyl)acetamido)-2-hydroxy-3,4-dihydro-2H-benzo[e][1,2]oxaborinine-8-carboxylic acid] | 1 to 2 µg/mL (≈ 1.65 to 3.3 µM) | 16 to 32 µg/mL (≈ 26.4 to 52.9 µM) | 16 to 32 µg/mL (≈ 26.4 to 52.9 µM) | 0.25 to 0.5 µg/mL (≈ 0.413 to 0.826 µM) | 16 to 32 µg/mL (≈ 26.4 to 52.9 µM) | 16 to 32 µg/mL (≈ 26.4 to 52.9 µM) | 16 to 32 µg/mL (≈ 26.4 to 52.9 µM) | 30 to 500 µM | D (D represents a potency <10 μM) |
| CCN1CCN(C(=O)NC(C(=O)N[C@H]2Cc3cccc(C(=O)O)c3OB2O)c2cc(Cl)c(O)cc2F)C(=O)C1=O (stereo partly drawn) [Example 101, (3R)-3-(2-(5-chloro-2-fluoro-4-hydroxyphenyl)-2-(4-ethyl-2,3-dioxopiperazine-1-carboxamido)acetamido)-2-hydroxy-3,4-dihydro-2H-benzo[e][1,2]oxaborinine-8-carboxylic acid] | 1 to 2 µg/mL (≈ 1.73 to 3.47 µM) | 16 to 32 µg/mL (≈ 27.7 to 55.5 µM) | 16 to 32 µg/mL (≈ 27.7 to 55.5 µM) | 0.25 to 0.5 µg/mL (≈ 0.433 to 0.867 µM) | 4 to 8 µg/mL (≈ 6.94 to 13.9 µM) | 16 to 32 µg/mL (≈ 27.7 to 55.5 µM) | 16 to 32 µg/mL (≈ 27.7 to 55.5 µM) | < 30 µM | D (D represents a potency <10 μM) |
| CCN1CCN(C(=O)NC(C(=O)N[C@H]2Cc3cccc(C(=O)O)c3OB2O)c2cc(F)c(O)cc2Cl)C(=O)C1=O (stereo partly drawn) [Example 103, (3R)-3-(2-(2-chloro-5-fluoro-4-hydroxyphenyl)-2-(4-ethyl-2,3-dioxopiperazine-1-carboxamido)acetamido)-2-hydroxy-3,4-dihydro-2H-benzo[e][1,2]oxaborinine-8-carboxylic acid] | 1 to 2 µg/mL (≈ 1.73 to 3.47 µM) | 16 to 32 µg/mL (≈ 27.7 to 55.5 µM) | 16 to 32 µg/mL (≈ 27.7 to 55.5 µM) | 0.25 to 0.5 µg/mL (≈ 0.433 to 0.867 µM) | 16 to 32 µg/mL (≈ 27.7 to 55.5 µM) | 16 to 32 µg/mL (≈ 27.7 to 55.5 µM) | 16 to 32 µg/mL (≈ 27.7 to 55.5 µM) | < 30 µM | D (D represents a potency <10 μM) |

Reference: patent publication US20230114728A1 (Venatorx Pharmaceuticals, Inc., priority 2019, published 2023)
